Measurements taken from the PolyMetriX glass transition set.
Where a name gives a salt, the structure may show the parent alone. ± gives the standard deviation of the reports.

Row | glass transition temperature [°C] | SMILES
1 | 13.40 | *O[Si](*)(C)CCCCCCCCCCC(=O)Oc1ccc(OC(=O)c2ccc(OCC(C)CC)cc2)cc1 (repeat unit)
2 | 98.00 | *OC(C)COC(=O)c1ccc(C(*)=O)cc1 (repeat unit)
3 | 264.50 | *C(=O)c1cc(C(=O)c2ccc3c(c2)C(=O)N(c2cccc(N4C(=O)c5ccc(*)cc5C4=O)c2)C3=O)cc(C(C)(C)C)c1 (repeat unit)
4 | 334.00 | *c1ccc(Oc2ccc(-c3ccc(Oc4ccc(-c5nnc(*)c6c(-c7ccccc7)c(-c7ccc8ccccc8c7)c(-c7ccc8ccccc8c7)c(-c7ccccc7)c56)cc4)cc3)cc2)cc1 (repeat unit)
5 | 65.00 | *Oc1ccc(C(C)(C)c2ccc(OC(*)=O)c(CC)c2)cc1CC (repeat unit)
6 | 19.00 | *CC(O)COC(=O)CCCCC(=O)OCC(O)COc1ccc(O*)cc1 (repeat unit)
7 | 8.00 | *CC(=O)NCCCCCCNC(=O)COC(=O)CCCCCCC(=O)O* (repeat unit)
8 | 141.00 | *OC(COC(=O)c1ccc(-c2ccc(C(*)=O)cc2)cc1)COc1ccc(/N=N/c2ccc(C#N)cc2)cc1 (repeat unit)
9 | 140.00 | *CC(*)(C)C(=O)OCCN(CC)c1ccc(/N=N/c2nc3ccc([N+](=O)[O-])cc3s2)cc1 (repeat unit)
10 | 327.00 | *Nc1ccc(NC(=O)c2cc(NC(=O)c3ccncc3)cc(C(*)=O)c2)cc1 (repeat unit)
11 | 277.00 | *c1ccc(Oc2ccc(N3C(=O)c4cccc(Oc5ccc(-c6ccc(Oc7cccc8c7C(=O)N(*)C8=O)cc6)cc5)c4C3=O)cc2)cc1 (repeat unit)
12 | 269.00 | *Oc1ccc(NC(=O)Nc2cc(NC(=O)Nc3ccc(*)cc3)ccc2C)cc1 (repeat unit)
13 | -52.00 | *O[Si](C)(C)O[Si](C)(C)O[Si](C)(C)O[Si](C)(C)c1ccc(Oc2ccc([Si](*)(C)C)cc2)cc1 (repeat unit)
14 | 52.80 | *Oc1ccc(OC(=O)CCCCCCCCC(*)=O)cc1 (repeat unit)
15 | 48.00 | *c1nc(C)nc(N(CCCCCCCCCCN(*)c2ccccc2)c2ccccc2)n1 (repeat unit)
16 | 320.00 | *C(=O)Nc1cccc(S(=O)(=O)c2cccc(NC(=O)c3ccc4c(c3)C(=O)N(c3ccc(-c5sc(-c6ccc(N7C(=O)c8ccc(*)cc8C7=O)cc6)c(-c6ccccc6)c5-c5ccccc5)cc3)C4=O)c2)c1 (repeat unit)
17 | -15.00 | *O[Si](C)(C)O[Si](*)(C)CCCCCCCCOc1ccc(C(=O)Oc2ccc(C#N)cc2C)cc1 (repeat unit)
18 | 271.00 | *c1ccc2oc(C3CCC(c4nc5cc(C(*)(C(F)(F)F)C(F)(F)F)ccc5o4)CC3)nc2c1 (repeat unit)
19 | 330.00 | *c1ccc2oc(-c3ccc(C(c4ccccc4)(c4ccc(-c5nc6cc(C(*)(c7ccccc7)C(F)(F)F)ccc6o5)cc4)C(F)(F)F)cc3)nc2c1 (repeat unit)
20 | 192.00 | *c1ccc(Oc2ccc(C(=O)c3cccc(C(=O)c4ccc(Oc5ccc(N6C(=O)c7ccc(Oc8ccc(Sc9ccc(Oc%10ccc%11c(c%10)C(=O)N(*)C%11=O)cc9)cc8)cc7C6=O)cc5)cc4)c3)cc2)cc1 (repeat unit)
21 | 263.00 | *Oc1ccc(S(=O)(=O)c2ccc(-c3ccc(S(=O)(=O)c4ccc(Oc5ccc(-c6ccc(-c7ccc(*)cc7)cc6)cc5)cc4)cc3)cc2)cc1 (repeat unit)
22 | 389.00 | *c1ccc(-c2cc(C(C)(C)C)c(Oc3ccc(N4C(=O)c5ccc(-c6ccc7c(c6)C(=O)N(*)C7=O)cc5C4=O)cc3C(F)(F)F)c(C(C)(C)C)c2)cc1 (repeat unit)
23 | 378.00 | *Nc1cccc2c(NC(=O)c3ccc(NC(=O)c4ccc([Si](C)(C)c5ccc(C(=O)Nc6ccc(C(*)=O)cc6)cc5)cc4)cc3)cccc12 (repeat unit)
24 | 233.00 | *Cc1cc2cc(C(=O)Nc3ccc(S(=O)(=O)c4ccc(NC(=O)c5cc6cc(*)c(OC(=O)COc7ccc8ccc(=O)oc8c7)cc6oc5=O)cc4)cc3)c(=O)oc2cc1OC(=O)COc1ccc2ccc(=O)oc2c1 (repeat unit)
25 | 165.00 | *c1ccc(Oc2cccc(N3C(=O)c4ccc([Si](C)(C)O[Si](C)(C)c5ccc6c(c5)C(=O)N(c5cccc(Oc7ccc(-c8nnc(*)o8)cc7)c5)C6=O)cc4C3=O)c2)cc1 (repeat unit)
26 | 87.00 | *CCCCCCCNC(=O)C(OC)C(OC)C(=O)N* (repeat unit)
27 | 305.00 | *C(=O)c1ccc2c(c1)C(=O)N(c1ccc(-c3ccccc3N3C(=O)c4ccc(*)cc4C3=O)cc1)C2=O (repeat unit)

Second part, the molecule before the results:

Row | SMILES | glass transition temperature [°C]
28 | *c1ccc(OCCN(CC)c2ccc(-c3ccc(C(=C(C#N)C#N)c4ccc(-c5ccc(N(CC)CC)cc5)s4)s3)cc2)c(-c2cc(-c3ccccc3)c3cc(Oc4ccc5nc(*)cc(-c6ccccc6)c5c4)ccc3n2)c1 (repeat unit) | 205.00
29 | *CCCCCCCN1C(=O)c2ccc(C(c3ccc4c(c3)C(=O)N(*)C4=O)(C(F)(F)F)C(F)(F)F)cc2C1=O (repeat unit) | 165.00
30 | *CCCCCCN(C)C(=O)CCCC(=O)N(*)C (repeat unit) | 3.00
31 | *CCC(C)(C)C(*)(C)C (repeat unit) | 87.00
32 | *Nc1cccc2c(NC(=O)c3ccc(C(*)=O)cc3)cccc12 (repeat unit) | 305.00
33 | *CC(*)C(=O)OCCC(F)(F)C(F)(F)C(F)(F)C(F)(F)C(F)(F)C(F)(F)C(F)(F)C(F)(F)F (repeat unit) | 52.00
34 | *CCCCCCCCOc1ccc(/C=C2\CC/C(=C\c3ccc(OCCCCCCCCOP(=O)(O*)OCC)c(OC)c3)C2=O)cc1OC (repeat unit) | 62.00
35 | *c1ccc(C2(c3ccc(-c4cc(-c5ccccc5)c5cc(Oc6ccc7nc(*)cc(-c8ccccc8)c7c6)ccc5n4)cc3)c3ccccc3C(=O)c3ccccc32)cc1 (repeat unit) | 340.00
36 | *C(=O)Nc1ccc(Oc2ccc(C(c3ccc(Oc4ccc(NC(=O)c5ccc6c(c5)C(=O)N(c5ccc(Oc7ccc8ccc(Oc9ccc(N%10C(=O)c%11ccc(*)cc%11C%10=O)cc9)cc8c7)cc5)C6=O)cc4)cc3)(C(F)(F)F)C(F)(F)F)cc2)cc1 (repeat unit) | 250.00
37 | *CC(*)c1c(F)c(F)c(P(=O)(O)O)c(F)c1F (repeat unit) | 330.00
38 | *c1ccc2c(c1)C(=O)N(c1ccc(Sc3ccc(N4C(=O)c5ccc(C(*)(C(F)(F)F)C(F)(F)F)cc5C4=O)cc3)cc1)C2=O (repeat unit) | 301.00
39 | *Cc1cc(C)c(CNC(=O)c2ccc(C(=O)N*)cc2)cc1C (repeat unit) | 225.00
40 | *OC1C(COCO)OC(*)C(O)C1O (repeat unit) | 208.00
41 | *c1ccc(Oc2ccc(-c3nc4cc(Oc5ccc(NC(=O)CN6C(=O)c7ccc(C(c8ccc9c(c8)C(=O)N(CC(=O)Nc8ccc(Oc%10ccc%11nc(-c%12ccccc%12)c(*)nc%11c%10)cc8)C9=O)(C(F)(F)F)C(F)(F)F)cc7C6=O)cc5)ccc4nc3-c3ccccc3)cc2)cc1 (repeat unit) | 260.00
42 | *CCCCCCOC(=O)C(CCCCCP(=O)(OCC)OCC)C(=O)OCCCCCCOc1ccc(-n2on2-c2ccc(O*)cc2)cc1 (repeat unit) | 7.00
43 | *Oc1ccc(/N=C(\C)c2ccc(Oc3ccc(C(C)(C)c4ccc(Oc5ccc(/C(C)=N/c6ccc(*)cc6)cc5)cc4)cc3)cc2)cc1 (repeat unit) | 141.00
44 | *CC#CC#CCOC(=O)c1ccc(C(=O)O*)cc1 (repeat unit) | 143.00

Row | SMILES | glass transition temperature [°C]
45 | *Nc1ccc(NC(=O)CCCCC(*)=O)cc1 (repeat unit) | 133.00
46 | *CC(*)C1CCCCC1 (repeat unit) [poly(vinylcyclohexane)] | 104.78 ± 28
47 | *COC(=O)Nc1ccc(Cc2ccc(NC(=O)OCc3ccc(*)o3)cc2)cc1 (repeat unit) | 81.00
48 | *O[Si](*)(C)CCCCCn1c2ccccc2c2ccccc21 (repeat unit) | 7.00
49 | *CC(*)OC=O (repeat unit) [Poly(vinyl formate)] | 32.4 ± 3.6
50 | *Oc1ccc(OC(=O)c2ccc(Oc3ccc(C(*)=O)cc3)cc2)c2ccccc12 (repeat unit) | 166.00
51 | *c1ccc2c(c1)C(=O)N(c1ccc(Oc3ccc(C(c4ccc(Oc5ccc(N6C(=O)c7ccc(C(*)(C(F)(F)F)C(F)(F)F)cc7C6=O)cc5C(F)(F)F)cc4)(C(F)(F)F)C(F)(F)F)cc3)c(C(F)(F)F)c1)C2=O (repeat unit) | 234.00
52 | *O[Si](*)(C)CCCOC(=O)c1cc(OC(=O)c2ccc(OCCOCCOCCOCCOCCOCCOC)cc2)ccc1OC(=O)c1ccc(OCCOCCOCCOCCOCCOCCOC)cc1 (repeat unit) | -46.00
53 | *C1C(=O)N(c2cc(Br)c(O[Si](CC)(CC)CC)c(Br)c2)C(=O)C1* (repeat unit) | 160.00
54 | */C=C/* (repeat unit) | -4.00
55 | *c1ccc2c(c1)C(=O)N(c1cc(C(=O)Nc3ccc(C(c4ccc(NC(=O)c5ccc(C)c(N6C(=O)c7ccc(C(*)(C(F)(F)F)C(F)(F)F)cc7C6=O)c5)cc4)(C(F)(F)F)C(F)(F)F)cc3)ccc1C)C2=O (repeat unit) | 293.50
56 | *c1cccc(Oc2ccc(P(=O)(c3ccccc3)c3ccccc3)c(Oc3cccc(N4C(=O)c5ccc(Oc6ccc(-c7ccc(Oc8ccc9c(c8)C(=O)N(*)C9=O)cc7)cc6)cc5C4=O)c3)c2)c1 (repeat unit) | 227.00
57 | *c1ccc(C(c2ccc(N3C(=O)c4cc5c(cc4C3=O)C(C(F)(F)F)(C(F)(F)F)c3cc4c(cc3O5)C(=O)N(*)C4=O)cc2)(C(F)(F)F)C(F)(F)F)cc1 (repeat unit) | 430.00
58 | *Sc1ccc2c(c1)Sc1ccc(*)cc1S2 (repeat unit) | 209.90
59 | *CC1CCC(CNC(=O)c2cc(C(=O)N*)cc(C(C)(C)C)c2)CC1 (repeat unit) | 236.00
60 | *Oc1ccc(P(=O)(c2ccccc2)c2ccc(Oc3ccc(-c4ccc(*)cc4)cc3)cc2)cc1 (repeat unit) | 234.00
